In patent publication US20240132431A1, “METHOD FOR ALKYLATING ACIDIC FUNCTIONAL GROUP” (Chugai Seiyaku Kabushiki Kaisha, priority 2021, published 2024):

Biological target: T1, Bcl-2 protein (Recombinant Human Bcl-2 Protein) (Homo sapiens, UniProt P10415)
T1 construct: purchased Novus NBP2-34889
Test: Binding evaluation of mixture library compounds to Bcl-2 using AS-MS (affinity selection mass spectrometry)
Details: ASMS Ratio(%)=(A−C)/B×100; for ASMS ratio (%) n = 1: replicate n = 1; for ASMS ratio (%) n = 2: replicate n = 2
How it was run: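 Affinity selection MS: Bcl-2 20 μM + 1200-cpd mixture, […]/cpd, Tris pH 7.4 buffer w/ Tween-20, DTT; 1 h 23° C dark; P-2 spin SEC; MeCN/MeOH extraction; RP LC/MS. ASMS Ratio(%) = (A−C)/B×100.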

[1] = AS-MS, mixture of 1200 compounds, Bcl-2
[2] = AS-MS on the mixture of 1200 library compounds

T1 sequence (P10415 whole entry): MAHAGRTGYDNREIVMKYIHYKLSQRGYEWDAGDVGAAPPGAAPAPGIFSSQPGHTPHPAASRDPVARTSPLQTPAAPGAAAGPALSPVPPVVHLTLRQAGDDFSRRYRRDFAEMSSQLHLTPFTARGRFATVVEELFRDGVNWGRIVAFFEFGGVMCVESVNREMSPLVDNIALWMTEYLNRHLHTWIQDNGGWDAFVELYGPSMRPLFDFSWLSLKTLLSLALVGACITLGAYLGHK

SMILES: CCOc1cncc(-c2csc(CN3CCN(c4ccc(C(=O)NCC(F)(F)F)nn4)CC3)c2)c1 [B1K094-01, 6-[4-[[4-(5-Ethoxypyridin-3-yl)thiophen-2-yl]methyl]piperazin-1-yl]-N-(2,2,2-trifluoroethyl)pyridazine-3-carboxamide]
- ASMS ratio (%) n = 1 [1]: 1.4%
- ASMS ratio (%) n = 2 [1]: −0.1%

SMILES: CCOc1cccc(C#Cc2ccccc2CN2CCN(c3ccc(C(=O)NCC(F)(F)F)nn3)CC2)c1 [B1K095-01, 6-[4-[[2-[2-(3-Ethoxyphenyl)ethynyl]phenyl]methyl]piperazin-1-yl]-N-(2,2,2-trifluoroethyl)pyridazine-3-carboxamide]
- ASMS ratio (%) n = 1 [1]: 3.5%
- ASMS ratio (%) n = 2 [1]: −0.6%

SMILES: CCOc1cncc(C#Cc2ccccc2CN2CCN(c3ccc(C(=O)NCC(F)(F)F)nn3)CC2)c1 [B1K096-01, 6-[4-[[2-[2-(5-Ethoxypyridin-3-yl)ethynyl]phenyl]methyl]piperazin-1-yl]-N-(2,2,2-trifluoroethyl)pyridazine-3-carboxamide]
- ASMS ratio (%) n = 1 [1]: 0.0%
- ASMS ratio (%) n = 2 [1]: 0.0%

SMILES: CCOc1cccc(-c2ccc(C(C)N3CCN(c4ccc(C(=O)NCC(F)(F)F)cc4)CC3)cc2)c1 (stereo not shown) [B1K097-01, 4-[4-[1-[4-(3-Ethoxyphenyl)phenyl]ethyl]piperazin-1-yl]-N-(2,2,2-trifluoroethyl)benzamide]
- ASMS ratio (%) n = 1 [1]: −2.1%
- ASMS ratio (%) n = 2 [1]: −3.1%

SMILES: CCOc1cncc(-c2ccc(C(C)N3CCN(c4ccc(C(=O)NCC(F)(F)F)cc4)CC3)cc2)c1 (stereo not shown) [B1K098-01, 4-[4-[1-[4-(5-Ethoxypyridin-3-yl)phenyl]ethyl]piperazin-1-yl]-N-(2,2,2-trifluoroethyl)benzamide]
- ASMS ratio (%) n = 1 [1]: −1.1%
- ASMS ratio (%) n = 2 [1]: −2.4%

SMILES: CCOc1cccc(-c2ccc(C(C)N3CCN(c4ccc(C(=O)NCC(F)(F)F)cc4)CC3)c(F)c2)c1 (stereo not shown) [B1K099-01, 4-[4-[1-[4-(3-Ethoxyphenyl)-2-fluorophenyl]ethyl]piperazin-1-yl]-N-(2,2,2-trifluoroethyl)benzamide]
- ASMS ratio (%) n = 1 [1]: 0.0%
- ASMS ratio (%) n = 2 [1]: 0.0%

SMILES: CCOc1cncc(-c2ccc(C(C)N3CCN(c4ccc(C(=O)NCC(F)(F)F)cc4)CC3)c(F)c2)c1 (stereo not shown) [B1K100-01, 4-[4-[1-[4-(5-Ethoxypyridin-3-yl)-2-fluorophenyl]ethyl]piperazin-1-yl]-N-(2,2,2-trifluoroethyl)benzamide]
- ASMS ratio (%) n = 1 [1]: 0.0%
- ASMS ratio (%) n = 2 [1]: 0.0%

SMILES: CCCNC(=O)c1ccc(N2CCN(Cc3cc(OC(C)C)cc(-c4cccc(OCC)c4)c3)CC2)cc1 [B1M015-01]
- ASMS ratio (%) n = 1 [1]: −2.4%
- ASMS ratio (%) n = 2 [1]: −3.0%

SMILES: CCCNC(=O)c1ccc(N2CCN(Cc3cc(-c4cccc(OCC)c4)cc(C(F)(F)F)c3)CC2)nn1 [B1M027-01]
- ASMS ratio (%) n = 1 [1]: 1.0%
- ASMS ratio (%) n = 2 [1]: 0.4%

SMILES: CCCNC(=O)c1ccc(N2CCN(Cc3cc(OC(F)(F)F)cc(-c4cccc(OCC)c4)c3)CC2)nn1 [B1M033-01]
- ASMS ratio (%) n = 1 [1]: 0.3%
- ASMS ratio (%) n = 2 [1]: 0.0%

SMILES: CCCNC(=O)c1ccc(N2CCN(Cc3ccccc3-c3cncc(OCC)c3)CC2)nn1 [B1M043-01]
- ASMS ratio (%) n = 1 [1]: 2.2%
- ASMS ratio (%) n = 2 [1]: −3.1%

SMILES: CCCNC(=O)c1ccc(N2CCN(Cc3ccccc3C#Cc3cccc(OCC)c3)CC2)cc1 [B1M052-01]
- ASMS ratio (%) n = 1 [1]: 27.6%
- ASMS ratio (%) n = 2 [1]: 20.2%

SMILES: CCCNC(=O)c1ccc(N2CCN(Cc3ccccc3C#Cc3cncc(OCC)c3)CC2)cc1 [B1M054-01]
- ASMS ratio (%) n = 1 [1]: 0.9%
- ASMS ratio (%) n = 2 [1]: 0.0%

SMILES: CCCNC(=O)c1ccc(N2CCN(Cc3ccc(-c4cccc(OCC)c4)c(C)c3)CC2)cc1 [B1M058-01]
- ASMS ratio (%) n = 1 [1]: −1.4%
- ASMS ratio (%) n = 2 [1]: −1.5%

SMILES: CCCNC(=O)c1ccc(N2CCN(Cc3ccc(-c4cncc(OCC)c4)cc3CC)CC2)cc1 [B1M075-01]
- ASMS ratio (%) n = 1 [1]: 77.3%
- ASMS ratio (%) n = 2 [1]: 46.1%

SMILES: CCCNC(=O)c1ccc(N2CCN(Cc3ccc(-c4cncc(OCC)c4)cc3CC)CC2)nn1 [B1M076-01, 6-[4-[[4-(5-Ethoxypyridin-3-yl)-2-ethylphenyl]methyl]piperazin-1-yl]-N-propylpyridazine-3-carboxamide]
- ASMS ratio (%) n = 1 [1]: 0.5%
- ASMS ratio (%) n = 2 [1]: 1.5%

SMILES: CCCNC(=O)c1ccc(N2CCN(Cc3ccc(-c4cncc(OCC)c4)cc3OC)CC2)nn1 [B1M100-01, 6-[4-[[4-(5-Ethoxypyridin-3-yl)-2-methoxyphenyl]methyl]piperazin-1-yl]-N-propylpyridazine-3-carboxamide]
- ASMS ratio (%) n = 1 [2]: 0.5%
- ASMS ratio (%) n = 2 [2]: −1.5%

SMILES: CCOc1cccc(-c2csc(C(=O)N3CCN(c4ccc(C(=O)Nc5ccc(OC)cc5)nn4)CC3)c2)c1 [B1O001-01, 6-[4-[4-(3-Ethoxyphenyl)thiophene-2-carbonyl]piperazin-1-yl]-N-(4-methoxyphenyl)pyridazine-3-carboxamide]
- ASMS ratio (%) n = 1 [2]: −0.1%
- ASMS ratio (%) n = 2 [2]: −3.1%

SMILES: CCOc1cncc(-c2csc(C(=O)N3CCN(c4ccc(C(=O)Nc5ccc(OC)cc5)nn4)CC3)c2)c1 [B1O002-01, 6-[4-[4-(5-Ethoxypyridin-3-yl)thiophene-2-carbonyl]piperazin-1-yl]-N-(4-methoxyphenyl)pyridazine-3-carboxamide]
- ASMS ratio (%) n = 1 [2]: 2.2%
- ASMS ratio (%) n = 2 [2]: 2.6%

SMILES: CCOc1cccc(-c2ccc(C(=O)N3CCN(c4ccc(C(=O)Nc5ccc(OC)cc5)nn4)CC3)cc2C)c1 [B1O003-01, 6-[4-[4-(3-Ethoxyphenyl)-3-methylbenzoyl]piperazin-1-yl]-N-(4-methoxyphenyl)pyridazine-3-carboxamide]
- ASMS ratio (%) n = 1 [2]: 0.0%
- ASMS ratio (%) n = 2 [2]: 0.0%

SMILES: CCOc1cncc(-c2ccc(C(=O)N3CCN(c4ccc(C(=O)Nc5ccc(OC)cc5)nn4)CC3)cc2C)c1 [B1O004-01, 6-[4-[4-(5-Ethoxypyridin-3-yl)-3-methylbenzoyl]piperazin-1-yl]-N-(4-methoxyphenyl)pyridazine-3-carboxamide]
- ASMS ratio (%) n = 1 [2]: 2.8%
- ASMS ratio (%) n = 2 [2]: 0.4%

SMILES: CCOc1cccc(-c2ccc(C(=O)N3CCN(c4ccc(C(=O)Nc5ccc(OC)cc5)nn4)CC3)cc2F)c1 [B1O005-01, 6-[4-[4-(3-Ethoxyphenyl)-3-fluorobenzoyl]piperazin-1-yl]-N-(4-methoxyphenyl)pyridazine-3-carboxamide]
- ASMS ratio (%) n = 1 [2]: 3.6%
- ASMS ratio (%) n = 2 [2]: −2.5%

SMILES: CCOc1cncc(-c2ccc(C(=O)N3CCN(c4ccc(C(=O)Nc5ccc(OC)cc5)nn4)CC3)cc2F)c1 [B1O006-01, 6-[4-[4-(5-Ethoxypyridin-3-yl)-3-fluorobenzoyl]piperazin-1-yl]-N-(4-methoxyphenyl)pyridazine-3-carboxamide]
- ASMS ratio (%) n = 1 [2]: 4.7%
- ASMS ratio (%) n = 2 [2]: 0.8%

SMILES: CCOc1cccc(C#Cc2ccccc2C(=O)N2CCN(c3ccc(C(=O)Nc4ccc(OC)cc4)nn3)CC2)c1 [B1O007-01, 6-[4-[2-[2-(3-Ethoxyphenyl)ethynyl]benzoyl]piperazin-1-yl]-N-(4-methoxyphenyl)pyridazine-3-carboxamide]
- ASMS ratio (%) n = 1 [2]: 4.5%
- ASMS ratio (%) n = 2 [2]: 0.9%

SMILES: CCOc1cncc(C#Cc2ccccc2C(=O)N2CCN(c3ccc(C(=O)Nc4ccc(OC)cc4)nn3)CC2)c1 [B1O008-01, 6-[4-[2-[2-(5-Ethoxypyridin-3-yl)ethynyl]benzoyl]piperazin-1-yl]-N-(4-methoxyphenyl)pyridazine-3-carboxamide]
- ASMS ratio (%) n = 1 [2]: 1.1%
- ASMS ratio (%) n = 2 [2]: 1.3%

SMILES: CCOc1cccc(C#Cc2cncc(C(=O)N3CCN(c4ccc(C(=O)Nc5ccc(OC)cc5)nn4)CC3)c2)c1 [B1O009-01, 6-[4-[5-[2-(3-Ethoxyphenyl)ethynyl]pyridine-3-carbonyl]piperazin-1-yl]-N-(4-methoxyphenyl)pyridazine-3-carboxamide]
- ASMS ratio (%) n = 1 [2]: 1.1%
- ASMS ratio (%) n = 2 [2]: 1.3%

SMILES: CCOc1cncc(C#Cc2cncc(C(=O)N3CCN(c4ccc(C(=O)Nc5ccc(OC)cc5)nn4)CC3)c2)c1 [B1O010-01, 6-[4-[5-[2-(5-Ethoxypyridin-3-yl)ethynyl]pyridine-3-carbonyl]piperazin-1-yl]-N-(4-methoxyphenyl)pyridazine-3-carboxamide]
- ASMS ratio (%) n = 1 [2]: 0.0%
- ASMS ratio (%) n = 2 [2]: 0.0%

SMILES: CCOc1cccc(-c2ccccc2CCC(=O)N2CCN(c3ccc(C(=O)Nc4ccc(OC)cc4)nn3)CC2)c1 [B1O011-01, 6-[4-[3-[2-(3-Ethoxyphenyl)phenyl]propanoyl]piperazin-1-yl]-N-(4-methoxyphenyl)pyridazine-3-carboxamide]
- ASMS ratio (%) n = 1 [2]: 0.0%
- ASMS ratio (%) n = 2 [2]: 4.3%

SMILES: CCOc1cncc(-c2ccccc2CCC(=O)N2CCN(c3ccc(C(=O)Nc4ccc(OC)cc4)nn3)CC2)c1 [B1O012-01, 6-[4-[3-[2-(5-Ethoxypyridin-3-yl)phenyl]propanoyl]piperazin-1-yl]-N-(4-methoxyphenyl)pyridazine-3-carboxamide]
- ASMS ratio (%) n = 1 [2]: 0.8%
- ASMS ratio (%) n = 2 [2]: −0.9%
